Target: human PCSK9 (Homo sapiens, UniProt Q8NBP7)
Assay: PCSK9 ligand binding assay (TR-FRET): interference with binding of human PCSK9 to human LDLR
Conditions: for IC50: Human PCSK9 Alexa Fluor 647 / Human LDLR extracellular domain-Europium Kryptate; for Max % inhibition: efficacy (Amax), 100% = 1 uM unlabeled human PCSK9, 0% = DMSO
Summary of the method: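 Read-out was TR-FRET ratio (665 nm over 615 nm, 330 nm excitation) between Alexa Fluor 647-human PCSK9 (16 nM added) and Europium Kryptate-human LDLR ectodomain (4 nM added). Compound and PCSK9 were mixed 30 min before LDLR, then incubated 2 h. Inhibition was normalised to DMSO and unlabelled-PCSK9 controls, giving IC50 and Amax.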

human PCSK9, sequence (Q8NBP7 153-692): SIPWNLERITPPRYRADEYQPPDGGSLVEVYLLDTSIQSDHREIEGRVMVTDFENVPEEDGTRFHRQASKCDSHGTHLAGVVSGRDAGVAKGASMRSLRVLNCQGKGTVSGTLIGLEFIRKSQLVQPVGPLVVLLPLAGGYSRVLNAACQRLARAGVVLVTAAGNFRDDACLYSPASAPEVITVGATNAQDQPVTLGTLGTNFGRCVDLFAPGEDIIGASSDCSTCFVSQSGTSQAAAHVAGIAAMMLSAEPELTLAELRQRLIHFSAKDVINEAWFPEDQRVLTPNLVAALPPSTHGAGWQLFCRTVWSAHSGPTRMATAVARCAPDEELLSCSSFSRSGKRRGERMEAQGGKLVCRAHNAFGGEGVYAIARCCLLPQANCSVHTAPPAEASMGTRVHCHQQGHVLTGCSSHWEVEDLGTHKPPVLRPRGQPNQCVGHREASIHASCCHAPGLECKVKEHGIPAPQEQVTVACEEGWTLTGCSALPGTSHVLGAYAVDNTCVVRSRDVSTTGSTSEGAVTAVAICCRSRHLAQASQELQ
human PCSK9, sequence (Q8NBP7 31-152 partner limits assumed): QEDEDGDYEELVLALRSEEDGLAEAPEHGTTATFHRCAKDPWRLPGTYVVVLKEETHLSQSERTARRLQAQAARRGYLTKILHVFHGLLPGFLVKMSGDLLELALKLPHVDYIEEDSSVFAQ

Structure (SMILES) | IC50 | Max % inhibition
C[C@H]1C(=O)N[C@@H](CO)C(=O)N(C)[C@@]2(Cc3ccc(Cl)cc3)CCCN(C2)C(=O)[C@H](Cc2ccccn2)CC(=O)N1Cc1c(F)cc(Cl)cc1Oc1ccc(-c2cnc(CN(C)C)n2C)cc1 [Compound 32, (3R,7S,10S,13R)-6-(4-Chloro-2-(4-(2-((dimethylamino)methyl)-1-methyl-1H-imidazol-5-yl)phenoxy)-6-fluorobenzyl)-13-(4-chlorobenzyl)-10-(hydroxymethyl)-7,12-dimethyl-3-(pyridin-2-ylmethyl)-1,6,9,12-tetraazabicyclo[11.3.1]heptadecane-2,5,8,11-tetraone] | 0.447 nM | 105.8%
COC[C@@H]1NC(=O)[C@H](C)N(Cc2ccc(Cl)cc2Oc2ccc(-c3cnc(CN4CCC4)n3C)cc2)C(=O)C[C@@H](CC(F)(F)F)C(=O)N2CCC[C@@](Cc3ccc(Cl)cc3)(C2)NC1=O [Compound 33, (3S,7S,10S,13R)-6-(2-(4-(2-(Azetidin-1-ylmethyl)-1-methyl-1H-imidazol-5-yl)phenoxy)-4-chlorobenzyl)-13-(4-chlorobenzyl)-10-(methoxymethyl)-7-methyl-3-(2,2,2-trifluoroethyl)-1,6,9,12-tetraazabicyclo[11.3.1]heptadecane-2,5,8,11-tetraone] | 1.05 nM | 113.0%
C[C@H]1C(=O)N[C@@H](CO)C(=O)N[C@@]2(Cc3ccc(Cl)cc3)CCCN(C2)C(=O)[C@H](Cc2c(F)cccc2F)CC(=O)N1Cc1c(F)cc(Cl)cc1Oc1ccc(-c2cnc(CN(C)C)n2C)cc1 [Compound 34, (3R, 7S, 10S, 13R)-6-(4-chloro-2-(4-(2-((dimethylamino)methyl)-1-methyl-1H-imidazol-5-yl)phenoxy)-6-fluorobenzyl)-13-(4-chlorobenzyl)-3-(2,6-difluorobenzyl)-10-(hydroxymethyl)-7-methyl-1,6,9,12-tetraazabicyclo[11.3.1]heptadecane-2,5,8,11-tetraone] | 0.509 nM | 101.6%
COC[C@@H]1NC(=O)[C@H](C)N(Cc2ccc(Cl)cc2Oc2ccc(-c3cnc(CN(C)C)n3C)cc2)C(=O)C[C@@H](Cc2ncco2)C(=O)N2CCC[C@@](Cc3ccc(Cl)cc3)(C2)NC1=O [Compound 35, (3R, 7S, 10S, 13R)-6-(4-chloro-2-(4-(2-((dimethylamino)methyl)-1-methyl-1H-imidazol-5-yl)phenoxy)benzyl)-13-(4-chlorobenzyl)-10-(methoxymethyl)-7-methyl-3-(oxazol-2-ylmethyl)-1,6,9,12-tetraazabicyclo[11.3.1]heptadecane-2,5,8,11-tetraone] | 0.914 nM | 105.0%
C[C@H]1C(=O)N[C@@H](CO)C(=O)N[C@@]2(Cc3ccc(Cl)cc3)CCCN(C2)C(=O)CCC(=O)N1Cc1c(OCC(F)(F)F)cc(Cl)cc1Oc1ccc(-c2cnc(CN(C)C)n2C)cc1 [Compound 36, (7S, 10S, 13R)-6-(4-chloro-2-(4-(2-((dimethylamino)methyl)-1-methyl-1H-imidazol-5-yl)phenoxy)-6-(2,2,2-trifluoroethoxy)benzyl)-13-(4-chlorobenzyl)-10-(hydroxymethyl)-7-methyl-1,6,9,12-tetraazabicyclo[11.3.1]heptadecane-2,5,8,11-tetraone] | 0.584 nM | 104.5%
C[C@H]1C(=O)N[C@@H](CO)C(=O)N(C)[C@@]2(Cc3ccc(Cl)cc3)CCCN(C2)C(=O)[C@H](Cc2c(F)cc(F)cc2F)CC(=O)N1Cc1ccc(Cl)cc1Oc1ccc(-c2cnc(CN(C)C)n2C)cc1 [Compound 37, (3R, 7S, 10S, 13R)-6-(4-chloro-2-(4-(2-((dimethylamino)methyl)-1-methyl-1H-imidazol-5-yl)phenoxy)benzyl)-13-(4-chlorobenzyl)-10-(hydroxymethyl)-7,12-dimethyl-3-(2,4,6-trifluorobenzyl)-1,6,9,12-tetraazabicyclo[11.3.1]heptadecane-2,5,8,11-tetraone] | 0.445 nM | 112.0%
COC[C@@H]1NC(=O)[C@H](C)N(Cc2ccc(Cl)cc2Oc2ccc(-c3cnc(CN(C)C)n3C)cc2)C(=O)C[C@@H](Cc2cccc(C)n2)C(=O)N2CCC[C@@](Cc3ccc(Cl)cc3)(C2)N(C)C1=O [Compound 38, (3R, 7S, 10S, 13R)-6-(4-chloro-2-(4-(2-((dimethylamino)methyl)-1-methyl-1H-imidazol-5-yl)phenoxy)benzyl)-13-(4-chlorobenzyl)-10-(methoxymethyl)-7,12-dimethyl-3-((6-methylpyridin-2-yl)methyl)-1,6,9,12-tetraazabicyclo[11.3.1]heptadecane-2,5,8,11-tetraone] | 0.715 nM | 106.4%
COC[C@@H]1NC(=O)[C@H](C)N(Cc2c(F)cc(Cl)cc2Oc2ccc(-n3cnc(CN4CCCC4)c3C)cc2)C(=O)C[C@@H](Cc2ccccc2)C(=O)N2CCC[C@@](Cc3ccc(Cl)cc3)(C2)NC1=O [Compound 39, (3R, 7S, 10S, 13R)-3-benzyl-6-(4-chloro-2-fluoro-6-(4-(5-methyl-4-(pyrrolidin-1-ylmethyl)-1H-imidazol-1-yl)phenoxy)benzyl)-13-(4-chlorobenzyl)-10-(methoxymethyl)-7-methyl-1,6,9,12-tetraazabicyclo[11.3.1]heptadecane-2,5,8,11-tetraone] | 0.383 nM | 113.2%
C/C=C/C[C@@H]1CC(=O)N(Cc2ccc(Cl)cc2Oc2ccc(-c3cnc(CN(C)C)n3C)cc2)[C@@H](C)C(=O)N[C@@H](CO)C(=O)N[C@@]2(Cc3ccc(Cl)cc3)CCCN(C2)C1=O [Compound 40, (3R,7S,10S,13R)-3-((E)-but-2-en-1-yl)-6-(4-Chloro-2-(4-(2-((dimethylamino)methyl)-1-methyl-1H-imidazol-5-yl)phenoxy)benzyl)-13-(4-chlorobenzyl)-10-(hydroxymethyl)-7-methyl-1,6,9,12-tetraazabicyclo[11.3.1]heptadecane-2,5,8,11-tetraone] | 0.6 nM | 107.8%
Cc1cccc(C[C@@H]2CC(=O)N(Cc3ccc(Cl)cc3Oc3ccc(-c4cnc(CN(C)C)n4C)cc3)[C@@H](C)C(=O)N[C@@H](CO)C(=O)N[C@@]3(Cc4ccc(Cl)cc4)CCCN(C3)C2=O)n1 [Compound 41, (3R, 7S, 10S, 13R)-6-(4-chloro-2-(4-(2-((dimethylamino)methyl)-1-methyl-1H-imidazol-5-yl)phenoxy)benzyl)-13-(4-chlorobenzyl)-10-(hydroxymethyl)-7-methyl-3-((6-methylpyridin-2-yl)methyl)-1,6,9,12-tetraazabicyclo[11.3.1]heptadecane-2,5,8,11-tetraone] | 0.556 nM | 105.9%
C[C@H]1C(=O)N[C@@H](CO)C(=O)N[C@@]2(Cc3ccc(Cl)cc3)CCCN(C2)C(=O)[C@H](CC2CC2)CC(=O)N1Cc1ccc(Cl)cc1Oc1ccc(-c2cnc(CN(C)C)n2C)cc1 [Compound 42, (3R, 7S, 10S, 13R)-6-(4-chloro-2-(4-(2-((dimethylamino)methyl)-1-methyl-1H-imidazol-5-yl)phenoxy)benzyl)-13-(4-chlorobenzyl)-3-(cyclopropylmethyl)-10-(hydroxymethyl)-7-methyl-1,6,9,12-tetraazabicyclo[11.3.1]heptadecone-2,5,8,11-tetraone] | 0.596 nM | 108.3%
C[C@H]1C(=O)N[C@@H](CO)C(=O)N[C@@]2(Cc3ccc(Cl)cc3)CCCN(C2)C(=O)[C@H](Cc2ccccc2)CC(=O)N1Cc1ccc(Cl)cc1Oc1ccc(-c2cnc(CN(C)C)n2C)c(F)c1 [Compound 43, (3R, 7S, 10S, 13R)-3-benzyl-6-(4-chloro-2-(4-(2-((dimethylamino)methyl)-1-methyl-1H-imidazol-5-yl)-3-fluorophenoxy)benzyl)-13-(4-chlorobenzyl)-10-(hydroxymethyl)-7-methyl-1,6,9,12-tetraazabicyclo[11.3.1]heptadecane-2,5,8,11-tetraone] | 0.405 nM | 110.0%
COC[C@@H]1NC(=O)[C@H](C)N(Cc2ccc(Cl)cc2Oc2ccc(-c3cnc(CN(C)C)n3C)cc2)C(=O)C[C@@H](Cc2cccc(=O)n2C)C(=O)N2CCC[C@@](Cc3ccc(Cl)cc3)(C2)NC1=O [Compound 44] | 1.18 nM | 105.2%
COC[C@@H]1NC(=O)[C@H](C)N(Cc2c(F)cc(Cl)cc2Oc2ccc(-c3cnc(CNC4CCC4)n3C)cc2)C(=O)C[C@@H](CC(F)(F)F)C(=O)N2CCC[C@@](Cc3ccc(Cl)cc3)(C2)NC1=O [Compound 45, (3S,7S,10S,13R)-6-(4-Chloro-2-(4-(2-((cyclobutylamino)methyl)-1-methyl-1H-imidazol-5-yl)phenoxy)-6-fluorobenzyl)-13-(4-chlorobenzyl)-10-(methoxymethyl)-7-methyl-3-(2,2,2-trifluoroethyl)-1,6,9,12-tetraazabicyclo[11.3.1]heptadecane-2,5,8,11-tetraone] | 0.816 nM | 103.7%
C[C@H]1C(=O)N[C@@H](CO)C(=O)N[C@@]2(Cc3ccc(Cl)cc3)CCCN(C2)C(=O)[C@H](Cc2c(F)cc(F)cc2F)CC(=O)N1Cc1ccc(Cl)cc1Oc1ccc(-c2cnc(CN(C)C)n2C)cc1 [Compound 46, (3R, 7S, 10S, 13R)-6-(4-chloro-2-(4-(2-((dimethylamino)methyl)-1-methyl-1H-imidazol-5-yl)phenoxy)benzyl)-13-(4-chlorobenzyl)-10-(hydroxymethyl)-7-methyl-3-(2,4,6-trifluorobenzyl)-1,6,9,12-tetraazabicyclo[11.3.1]heptadecane-2,5,8,11-tetraone] | 0.568 nM | 112.3%
C[C@H]1C(=O)N[C@@H](CO)C(=O)N[C@@]2(Cc3ccc(Cl)cc3)CCCN(C2)C(=O)[C@H](Cc2cccnc2)CC(=O)N1Cc1ccc(Cl)cc1Oc1ccc(-c2cnc(CN3CCOCC3)n2C)cc1.Cl [Compound 47, (3R, 7S, 10S, 13R)-6-(4-chloro-2-(4-(1-methyl-2-(morpholinomethyl)-1H-imidazol-5-yl)phenoxy)benzyl)-13-(4-chlorobenzyl)-10-(hydroxymethyl)-7-methyl-3-(pyridin-3-ylmethyl)-1,6,9,12-tetraazabicyclo[11.3.1]heptadecane-2,5,8,11-tetraone] | 0.82 nM | 97.0%

From patent publication US11813306B2, “Cyclic tetramer compounds as proprotein convertase subtilisin/kexin type 9 (PCSK9) inhibitors for the treatment of metabolic disorders” (NOVARTIS AG, priority 2018, dated 2023)
